# Results published in patent US20100098641A1, “Monophosphates as Mutual Prodrugs of Anti-Inflammatory Signal Transduction Modulators (AISTM's) and Beta-Agonists for the Treatment of Pulmonary Inflammation and Bronchoconstriction” (priority 2006, published 2010).
# Like-named read-outs stand apart in the source and are kept apart here.
# Tests used:
# alkaline phosphatase = alkaline phosphatase (Homo sapiens, UniProt P05187); assay: Conversion of mutual prodrugs to salmeterol and AISTM drug after exposure to alkaline phosphatase in vitro (LCMS); assay type: in vitro ADME; conditions: for Calculated Compound Final Conc. (μM) at 270 mins.: 270 mins in ALP; for half-life at 111.7 μM / half-life at 0.1 mg/mL: human, alkaline phosphatase (Sigma P-3895) in reaction buffer, read-out: Half Life t1/2; for half-life at 111.7 μM: Table 1b; for Example 29 in ALP (Peak Area Ratio) Normalized / Example 29 in ALP (Peak Area Ratio) mean / Example 37 in ALP (Peak Area Ratio) Normalized / Example 37 in ALP (Peak Area Ratio) mean: 37 degrees
# Method: Conversion of the Mutual AISTM-β-Agonist Prodrugs (Described in Examples 29 and 37) to Salmeterol and Respective AISTM Drugs after Exposure to Alkaline Phosphatase In Vitro
# Reaction Buffer (pH 7.4, 5 mM tris/1 mM Mg^2+/1 mM Zn^2+) […]
# Dissolved ˜2 mg of the mutual prodrug of invention in 10 ml 1:1 acetonitrile/water.
# Dissolved ˜2 mg of each MRA and β-agonist in 20 ml 1:1 acetonitrile/water
# The stock solutions were mixed in microcentrifuge tubes, as depicted in the following Table:
# (§1) The heat block was set at the 37 degrees. Then 0.5 mL of alkaline phosphatase solution was added into 4 preheated Eppendorf tubes. The aliquot 0.5 of prodrug and drug standards were added into preheated Eppendorf tubes. Immediately after vortexing the aliquots of 25 μL of the all reaction solutions were made into the respective 96-well plate positions. The internal standard (75 μl of 500 ng/mL Glyburide) was added into all samples after each aliquots. That procedure was repeated at every 15 minute intervals for ˜4-5 hours.
# The 96-well plates were then analyzed using the LCMS technique.
# (§2) In the calculation of half life, we assumed that the disappearance of the mutual prodrug of this invention followed first order kinetics. Therefore,
# (§3) The area peak ratio of prodrug vs IS was plotted against time first; the peak area ratios of later time points were normalized with the peak area ratio of initial time point (ASAP). The natural log of the normalized ratio was then plotted against time to generate a linear curve. The slope of this linear curve k was used for the following calculation.
# Drug concentrations are calculated by normalizing the peak area ration to (t 0). Thus, calculated drug concentrations at any time point=normalized peak area ratio [t (0) mean/t mean]multiplied initial drug concentration. Data (normalized peak area ratio) for the calculations of drug concentrations are listed in Table 1a (ALP activation) and 1b (half-life in ALP and buffer only) for the compound prepared in Example 29, salmeterol, and the ARRY-797 compound (Munson et al., 2004) and Table 2a (ALP activation) and 2b (half-life in ALP and buffer only)) for the compound prepared in Example 37, salmeterol, and the PDE4 inhibitor, CDP-840 (Alexander et al., 2002).
# [1] = Half life of mutual prodrug in reaction buffer only (pH 7.4 tris/Mg2+/Zn2+); assay type: physicochemical; conditions: reaction buffer without alkaline phosphatase, reaction buffer pH 7.4, no ALP
# Method: Reaction Buffer (pH 7.4, 5 mM tris/1 mM Mg^2+/1 mM Zn^2+)
# as §1, §2, §3
# Drug concentrations are calculated by normalizing the peak area ration to (t 0). Thus, calculated drug concentrations at any time point=normalized peak area ratio [t (0) mean/t mean]multiplied initial drug concentration. […]
# Chain of alkaline phosphatase (P05187 23-506): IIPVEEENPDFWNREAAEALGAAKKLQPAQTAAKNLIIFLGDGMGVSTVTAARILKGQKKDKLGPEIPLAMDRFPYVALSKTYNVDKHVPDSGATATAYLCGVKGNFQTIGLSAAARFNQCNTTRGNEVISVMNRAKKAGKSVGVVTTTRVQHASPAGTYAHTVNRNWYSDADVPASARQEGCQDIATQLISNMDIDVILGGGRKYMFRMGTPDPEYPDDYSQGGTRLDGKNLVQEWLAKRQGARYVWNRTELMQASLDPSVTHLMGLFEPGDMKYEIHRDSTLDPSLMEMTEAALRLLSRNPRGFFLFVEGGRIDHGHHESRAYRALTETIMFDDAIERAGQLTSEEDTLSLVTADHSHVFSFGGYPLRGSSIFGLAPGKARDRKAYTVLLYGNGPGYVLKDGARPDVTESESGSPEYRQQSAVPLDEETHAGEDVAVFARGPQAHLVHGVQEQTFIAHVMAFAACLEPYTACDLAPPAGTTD
compound,measurement,setting,value
"CC(C)Cn1ncc2cc(Oc3ccc(F)cc3F)c(C(=O)NCC[N+](C)(C)Cc3cc(C(O)CNCCCCCCOCCCCc4ccccc4)ccc3OP(=O)(O)O)cc21 (stereo not shown) [Example 29, (2-{[5-(2,4-Difluoro-phenoxy)-1-isobutyl-1H-indazole-6-carbonyl]-amino}-ethyl)-(5-{-hydroxy-2-[6-(4-phenyl-butoxy)-hexylamino]-ethyl}-2-phosphonooxy-benzyl)-dimethyl-ammonium]",Calculated Compound Final Conc. (μM) at 270 mins.,alkaline phosphatase; added initial conc. 111.7 μM in reaction mixture,57.5 µM
same,half-life at 111.7 μM,"alkaline phosphatase; pH 7.4, ALP Enzyme Conc. 0.224 mg/mL, first order kinetics assumed",5.78 h
same,half-life at 111.7 μM,"alkaline phosphatase; pH 7.4, ALP Enzyme Conc. 0.443 mg/mL, first order kinetics assumed",2.36 h
same,Example 29 in ALP (Peak Area Ratio) Normalized,alkaline phosphatase; time 0 mins,1.0000
same,Example 29 in ALP (Peak Area Ratio) mean,alkaline phosphatase; time 0 mins,2.3900
same,Example 29 in ALP (Peak Area Ratio) Normalized,alkaline phosphatase; time 15.0 mins,0.9289
same,Example 29 in ALP (Peak Area Ratio) mean,alkaline phosphatase; time 15.0 mins,2.2200
same,Example 29 in ALP (Peak Area Ratio) Normalized,alkaline phosphatase; time 30.0 mins,0.9247
same,Example 29 in ALP (Peak Area Ratio) mean,alkaline phosphatase; time 30.0 mins,2.2100
same,Example 29 in ALP (Peak Area Ratio) Normalized,alkaline phosphatase; time 45.0 mins,0.8368
same,Example 29 in ALP (Peak Area Ratio) mean,alkaline phosphatase; time 45.0 mins,2.0000
same,Example 29 in ALP (Peak Area Ratio) Normalized,alkaline phosphatase; time 60.0 mins,0.7552
same,Example 29 in ALP (Peak Area Ratio) mean,alkaline phosphatase; time 60.0 mins,1.8050
same,Example 29 in ALP (Peak Area Ratio) Normalized,alkaline phosphatase; time 75.0 mins,0.7050
same,Example 29 in ALP (Peak Area Ratio) mean,alkaline phosphatase; time 75.0 mins,1.6850
same,Example 29 in ALP (Peak Area Ratio) Normalized,alkaline phosphatase; time 90.0 mins,0.6402
same,Example 29 in ALP (Peak Area Ratio) mean,alkaline phosphatase; time 90.0 mins,1.5300
same,Example 29 in ALP (Peak Area Ratio) Normalized,alkaline phosphatase; time 105 mins,0.6109
same,Example 29 in ALP (Peak Area Ratio) mean,alkaline phosphatase; time 105 mins,1.4600
same,Example 29 in ALP (Peak Area Ratio) Normalized,alkaline phosphatase; time 120 mins,0.6402
same,Example 29 in ALP (Peak Area Ratio) mean,alkaline phosphatase; time 120 mins,1.5300
same,Example 29 in ALP (Peak Area Ratio) Normalized,alkaline phosphatase; time 135 mins,0.6192
same,Example 29 in ALP (Peak Area Ratio) mean,alkaline phosphatase; time 135 mins,1.4800
same,Example 29 in ALP (Peak Area Ratio) Normalized,alkaline phosphatase; time 150 mins,0.5941
same,Example 29 in ALP (Peak Area Ratio) mean,alkaline phosphatase; time 150 mins,1.4200
same,Example 29 in ALP (Peak Area Ratio) Normalized,alkaline phosphatase; time 165 mins,0.5879
same,Example 29 in ALP (Peak Area Ratio) mean,alkaline phosphatase; time 165 mins,1.4050
same,Example 29 in ALP (Peak Area Ratio) Normalized,alkaline phosphatase; time 180 mins,0.5439
same,Example 29 in ALP (Peak Area Ratio) mean,alkaline phosphatase; time 180 mins,1.3000
same,Example 29 in ALP (Peak Area Ratio) Normalized,alkaline phosphatase; time 210 mins,0.5146
same,Example 29 in ALP (Peak Area Ratio) mean,alkaline phosphatase; time 210 mins,1.2300
same,Example 29 in ALP (Peak Area Ratio) Normalized,alkaline phosphatase; time 240 mins,0.4916
same,Example 29 in ALP (Peak Area Ratio) mean,alkaline phosphatase; time 240 mins,1.1750
same,Example 29 in ALP (Peak Area Ratio) Normalized,alkaline phosphatase; time 270 mins,0.5146
same,Example 29 in ALP (Peak Area Ratio) mean,alkaline phosphatase; time 270 mins,1.2300
same,half-life,[1]; Table 1b,57.8 h
"COc1ccc([C@H](Cc2cc[n+](Cc3ccc(C(O)CNCCCCCCOCCCCc4ccccc4)cc3OP(=O)(O)O)cc2)c2ccccc2)cc1OC1CCCC1 (stereo in doubt) [Example 37, 4-[2-(3-Cyclopentyloxy-4-methoxy-phenyl)-2-phenyl-ethyl]-1-(4-{1-hydroxy-2-[6-(4-phenyl-butoxy)-hexylamino]-ethyl}-2-phosphonooxy-benzyl)-pyridinium]",Half Life t1/2,"alkaline phosphatase; ALP Enzyme Conc. 0.224 mg/mL, Table 2b, first order kinetics assumed",0.925 h
same,Calculated Compound Final Conc. (μM) at 270 mins.,alkaline phosphatase; added initial conc. 117.4 μM in reaction mixture,1.9 µM
same,half-life at 0.1 mg/mL,"alkaline phosphatase; pH 7.4, ALP Enzyme Conc. 0.224 mg/mL, Table 2b, first order kinetics assumed",0.775 h
same,half-life at 0.1 mg/mL,"alkaline phosphatase; pH 7.4, ALP Enzyme Conc. 0.443 mg/mL, Table 2b, first order kinetics assumed",0.41 h
same,Example 37 in ALP (Peak Area Ratio) Normalized,alkaline phosphatase; time 0 mins,1.0000
same,Example 37 in ALP (Peak Area Ratio) mean,alkaline phosphatase; time 0 mins,0.8115
same,Example 37 in ALP (Peak Area Ratio) Normalized,alkaline phosphatase; time 15.0 mins,0.5126
same,Example 37 in ALP (Peak Area Ratio) mean,alkaline phosphatase; time 15.0 mins,0.4160
same,Example 37 in ALP (Peak Area Ratio) Normalized,alkaline phosphatase; time 30.0 mins,0.2705
same,Example 37 in ALP (Peak Area Ratio) mean,alkaline phosphatase; time 30.0 mins,0.2195
same,Example 37 in ALP (Peak Area Ratio) Normalized,alkaline phosphatase; time 45.0 mins,0.1719
same,Example 37 in ALP (Peak Area Ratio) mean,alkaline phosphatase; time 45.0 mins,0.1395
same,Example 37 in ALP (Peak Area Ratio) Normalized,alkaline phosphatase; time 60.0 mins,0.1280
same,Example 37 in ALP (Peak Area Ratio) mean,alkaline phosphatase; time 60.0 mins,0.1039
same,Example 37 in ALP (Peak Area Ratio) Normalized,alkaline phosphatase; time 75.0 mins,0.0974
same,Example 37 in ALP (Peak Area Ratio) mean,alkaline phosphatase; time 75.0 mins,0.0791
same,Example 37 in ALP (Peak Area Ratio) Normalized,alkaline phosphatase; time 90.0 mins,0.0752
same,Example 37 in ALP (Peak Area Ratio) mean,alkaline phosphatase; time 90.0 mins,0.0610
same,Example 37 in ALP (Peak Area Ratio) Normalized,alkaline phosphatase; time 105 mins,0.0630
same,Example 37 in ALP (Peak Area Ratio) mean,alkaline phosphatase; time 105 mins,0.0511
same,Example 37 in ALP (Peak Area Ratio) Normalized,alkaline phosphatase; time 120 mins,0.0478
same,Example 37 in ALP (Peak Area Ratio) mean,alkaline phosphatase; time 120 mins,0.0388
same,Example 37 in ALP (Peak Area Ratio) Normalized,alkaline phosphatase; time 135 mins,0.0439
same,Example 37 in ALP (Peak Area Ratio) mean,alkaline phosphatase; time 135 mins,0.0357
same,Example 37 in ALP (Peak Area Ratio) Normalized,alkaline phosphatase; time 150 mins,0.0322
same,Example 37 in ALP (Peak Area Ratio) mean,alkaline phosphatase; time 150 mins,0.0262
same,Example 37 in ALP (Peak Area Ratio) Normalized,alkaline phosphatase; time 165 mins,0.0296
same,Example 37 in ALP (Peak Area Ratio) mean,alkaline phosphatase; time 165 mins,0.0240
same,Example 37 in ALP (Peak Area Ratio) Normalized,alkaline phosphatase; time 180 mins,0.0275
same,Example 37 in ALP (Peak Area Ratio) mean,alkaline phosphatase; time 180 mins,0.0224
same,Example 37 in ALP (Peak Area Ratio) Normalized,alkaline phosphatase; time 210 mins,0.0227
same,Example 37 in ALP (Peak Area Ratio) mean,alkaline phosphatase; time 210 mins,0.0184
same,Example 37 in ALP (Peak Area Ratio) Normalized,alkaline phosphatase; time 240 mins,0.0198
same,Example 37 in ALP (Peak Area Ratio) mean,alkaline phosphatase; time 240 mins,0.0161
same,Example 37 in ALP (Peak Area Ratio) Normalized,alkaline phosphatase; time 270 mins,0.0161
same,Example 37 in ALP (Peak Area Ratio) mean,alkaline phosphatase; time 270 mins,0.0131
same,half-life,[1]; Table 2b,6.42 h
